Experimental data as given in patent US20120015414A1, “Production of organic compounds” (priority 2010, published 2012).

What was measured:
OleA and OleC = molecular target: T1, OleA and OleC (Xanthomonas campestris pv. campestris, UniProt Q8PDX2); experiment: Hydrocarbon detection enzyme assay, OleA and OleC in admixture; format: biochemical; details: substrate incubated with OleA and OleC
T1 construct: His-tag (N); made in house; host or cells: E. coli (OleA)
T1 sequence (Q8PDX2 1-338): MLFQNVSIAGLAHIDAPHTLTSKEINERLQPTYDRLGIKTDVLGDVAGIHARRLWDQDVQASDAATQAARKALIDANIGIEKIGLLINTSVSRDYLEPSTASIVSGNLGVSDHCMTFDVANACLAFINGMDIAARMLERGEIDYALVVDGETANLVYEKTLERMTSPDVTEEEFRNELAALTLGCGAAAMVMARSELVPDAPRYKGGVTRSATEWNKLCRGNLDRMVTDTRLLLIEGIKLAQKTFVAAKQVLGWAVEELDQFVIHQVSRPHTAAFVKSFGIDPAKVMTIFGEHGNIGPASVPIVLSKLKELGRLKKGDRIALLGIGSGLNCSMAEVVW
Protocol: (§1) Hydrocarbon Detection Enzyme Assay. […] Products were extracted with 250 μl ethyl acetate using 16-hentriacontanone ketone (Tokyo Kasei Kogyo Co., Ltd., Japan) as an internal standard. After vortexing and 5 min of gentle centrifugation, the top solvent layer was transferred to a glass vial and analyzed using a gas chromatograph equipped with a flame ionization detector HP 7890A (Hewlett Packard, Palo Alto) and mass spectrometer HP 5975C (GC-MS-FID). GC was conducted under the following conditions: helium gas, 1.75 ml/min; HP-1 ms column (100% dimethylsiloxane capillary; 30 m by 250 μm by 0.25 μm); temperature ramp, 100° C. to 320° C.; 10° C./min, hold at 320° C. for 5 min, 250° C. injection port, and split at the outlet between MS and FID. The mass spectrometer was run under the following conditions: electron impact at 70 eV and 35 μA. The flame ionization detector was set at 250° C. with hydrogen flow set at 30 ml/min, air set at 400 ml/min, and helium makeup gas set at 25 ml/min.
(§2) Role of OleA in olefin biosynthesis. […] Other Ole proteins were purified as described in the methods section and tested in admixture with OleA and with myristoyl-CoA as the substrate. […] The identities of the products were confirmed by mass spectrometry.

OleA [1] = molecular target: T2, OleA (Xanthomonas campestris pv. campestris, UniProt Q8PDX2); experiment: Release of CoASH thiol (DTNB) for assay of OleA substrate range; format: biochemical; details: for % of Theoretical / CoA Product: starting substrate 65 μM; for % of Theoretical: 65 μM of product is 100% of theoretical yield; for CoA Product: free coenzyme A detected with DTNB, average of triplicate determinations with standard error; for reaction stoichiometry, coenzyme A released per acyl-CoA consumed: substrate allowed to completely react; for reaction with OleA to release coenzyme A: incubation time in which palmitoyl-CoA reacts completely
T2 construct: His-tag (N); made in house; host or cells: E. coli One Shot BL21 (DE3), pET28b+
Protocol: Detecting the Release of CoASH Thiol for Assay of OleA Substrate Range. Release of the free thiol group of CoASH was detected by the addition of 5,5′-dithio-bis-(2-nitrobenzoic acid) (DTNB) measured spectrophotometrically at 412 nm (ε412=13,600 M^−1 cm^−1) (Alexson et al. 1988, J. Biol. Chem. 263:13564-13571; Ellman et al. 1958. Arch Biochem. Biophys. 74:443-450). […] DTNB was incubated with the reaction for 2 min and quantified spectrophotometrically.
Initial Defining of Substrate Specificity and Reaction Products of OleA. Enzymes catalyzing condensation or hydrolysis reactions with acyl-CoA substrates release coenzyme A that can be assayed colorimetrically using DTNB (Alexson et al. 1988. J. Biol. Chem. 263:13564-13571; Skaff et al. 2010. Anal. Biochem. 396:288-296; Sleeman et al. 2004. J. Biol. Chem. 279:6730-6736; Yashiro et al. 1995. Biochim. Biophys. 1258:288-96). […] With purified OleA, DTNB was used to determine the stoichiometry of coenzyme A formation and to begin to discern the substrate specificity of OleA.
First, the coenzyme A product stoichiometry was determined using either myristoyl-CoA or palmitoyl-CoA and allowing the substrate to completely react. With either substrate, the reaction stoichiometry was 1.0 mole of coenzyme A released for each mole of acyl-CoA consumed. In this manner, acyl-CoA chains of different lengths were tested with OleA using a time of incubation in which palmitoyl-CoA reacts completely as described in the Methods section. Under those conditions (Table III-2) palmitoyl-CoA reacted more completely than myristoyl-CoA.

OleA, OleC and OleD = molecular target: T3, OleA, OleC and OleD (Xanthomonas campestris pv. campestris, UniProt Q8PDX2); experiment: Hydrocarbon detection enzyme assay, OleA, OleC and OleD; format: biochemical; details: substrate incubated with OleA
T3 construct: His-tag (N); made in house
T3 sequence (Q8PDX2 1-338): T1 sequence (Q8PDX2 1-338)
Protocol: as §1, §2

OleA [2] = molecular target: T2, OleA; experiment: GC-MS/GC-FID product analysis of OleA reactions with acyl-CoA substrates; format: biochemical; details: peak area integration
Protocol: Subsequent experiments were conducted to examine if coenzyme A was formed as a consequence of acyl-group condensation, thioester bond hydrolysis, or some mixture of the two reactions. Based on previous observations (Beller et al. 2010. Appl. Environ. Microbiol. 76:1212-1223; Sukovich et al. 2010. Appl. Environ. Microbiol. 76:3850-62; Friedman et al. 2008. International Patent WO2008/113041), it was known that long-chain ketones were the observed condensation products. In subsequent experiments in this study, it was shown that β-keto acids are the initial products and those decarboxylate quantitatively to the corresponding ketone. In this context, reaction mixtures were solvent extracted and subjected to GC-MS to identify ketones derived from condensation and/or fatty acids derived from acyl chain hydrolysis.
In this context, experiments were conducted with mixtures of fatty acyl-CoA substrates. All pairwise combinations of C10, C12, C14, C16, saturated and C16 monounsaturated (C16:1) acyl-CoA substrates were incubated, extracted, and analyzed for products by GC-MS and GC-FID. In all, 15 product mixtures were analyzed. […] Only with C12 acyl condensation and C14 plus C16:1 condensation were the major products derived from a condensation of fatty acyl chains. In the case of C14 condensations (myristoyl-CoA), the ketone 14-heptacosanone was produced at only slightly lower levels than the hydrolysis product myristic acid.

[3] = Spontaneous decarboxylation of synthetic beta-keto acid; details: synthetic acid from hydrogenolysis of the benzyl ester, no enzyme
OleC and OleD = molecular target: T4, OleC and OleD (Xanthomonas campestris pv. campestris, UniProt Q8PDW5); experiment: Hydrocarbon detection enzyme assay, OleC and OleD without OleA; format: biochemical; details: substrate incubated with OleC and OleD
T4 construct: His6-tag with thrombin site (implied by Ni-column purification); made in house; host or cells: E. coli One Shot BL21 (DE3) for OleD
Protocol: as §1
The identity of the compound was confirmed by the mass spectrum shown above the GC chromatogram in FIG. III-6A, with the major ion, m/z 378, representing the molecular ion.
Next, it was tested if the ketone 14-heptacosanone could also give rise to 14-heptacosene or any other discernible product.

Synechococcus [4] = experiment: Effect of growth supplements of the type found in corn steep liquor on Synechococcus; format: cell-based; details: flasks supplemented
From the text: The effects of growth supplements of the type found in corn steep liquor on the growth of Synechococcus and Shewanella were examined.

Synechococcus [5] = experiment: Growth in BG11AN medium supplemented with lactic acid; format: cell-based
From the text: To maintain the co-culture of the cyanobacterium (Synechococcus) and the heterotroph (Shewanella), a minimal medium was established that would support growth of both Shewanella and Synechococcus. We started with the preferred medium for Synechococcus, known as BG11. […] A modified Synechococcus minimal medium, denoted here as BG11AN medium, was used and supplemented with lactic acid to test both lactate inhibition and ammonia inhibition. BG11AN has ammonium nitrate at 1.5 g/L replacing the sodium nitrate used in BG11. Shewanella grew well in BG11AN medium. The Synechococcus grew in the BG11AN medium, not as well as in BG11, but acceptably. The cultures in BG11 AN were more of a yellow green than the deep green of the BG11 culture. […] In fact, it stimulated growth at levels up to 0.5 g/L. It was concluded that the BG11AN medium can be used for co-culture of Synechococcus and Shewanella in subsequent experiments.

T4 sequence (Q8PDW5 2-337, added parts left off): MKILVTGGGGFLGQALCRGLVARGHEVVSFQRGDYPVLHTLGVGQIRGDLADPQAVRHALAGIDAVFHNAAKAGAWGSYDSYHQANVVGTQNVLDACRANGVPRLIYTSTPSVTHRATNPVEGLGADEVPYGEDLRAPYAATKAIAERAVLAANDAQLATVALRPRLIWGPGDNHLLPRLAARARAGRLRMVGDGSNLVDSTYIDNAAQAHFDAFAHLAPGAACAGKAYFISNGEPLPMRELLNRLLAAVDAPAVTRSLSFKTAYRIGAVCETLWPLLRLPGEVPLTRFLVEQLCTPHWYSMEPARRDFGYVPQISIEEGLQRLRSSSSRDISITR

| SMILES | % of Theoretical (OleA [1]) [%] | CoA Product (OleA [1]) [µM] | reaction with OleA to release coenzyme A (OleA [1]) | further results |
| --- | --- | --- | --- | --- |
| CCCCCCCCCCCCCC(=O)SCCNC(=O)CCNC(=O)[C@H](O)C(C)(C)COP(=O)(O)OP(=O)(O)OC[C@H]1O[C@@H](n2cnc3c(N)ncnc32)[C@H](O)[C@@H]1OP(=O)(O)O [Myristoyl-CoA] | 97 | 63.2 ± 0.4 |  | products observed by GC-MS (OleA and OleC): produced only 14-heptacosanone; reaction stoichiometry, coenzyme A released per acyl-CoA consumed (OleA [1]): 1.0 mole of coenzyme A released for each mole of acyl-CoA consumed; products observed by GC-MS (OleA, OleC and OleD): the olefin 14-heptacosene (20.4 min) was observed in addition to the peak corresponding to 14-heptacosanone; Products, ketones (Cx) and fatty acids (FAx), in order of decreasing abundance (OleA [2]; second fatty acyl-CoA chain C14): FA14 > C27 |
| CCCCCCCCCCCCCCCC(=O)SCCNC(=O)CCNC(=O)[C@H](O)C(C)(C)COP(=O)(O)OP(=O)(O)OC[C@H]1O[C@@H](n2cnc3c(N)ncnc32)[C@H](O)[C@@H]1OP(=O)(O)O [Palmitoyl-CoA] | 100 | 65.0 ± 0.9 |  | reaction stoichiometry, coenzyme A released per acyl-CoA consumed (OleA [1]): 1.0 mole of coenzyme A released for each mole of acyl-CoA consumed; Products, ketones (Cx) and fatty acids (FAx), in order of decreasing abundance (OleA [2]; second fatty acyl-CoA chain C16): FA16 > C31 |
| CCCCCCCCCCCCCC(=O)C(CCCCCCCCCCCC)C(=O)O (racemic) [2-myristoylmyristic acid] |  |  |  | stability, decarboxylation to 14-heptacosanone [3]: rapid decarboxylation; products observed by GC-MS (OleC and OleD): yielded 14-heptacosanone and the expected olefinic product from head-to-head condensation, 14-heptacosene |
| CCCCCCCCCCCCCCCCCC(=O)SCCNC(=O)CCNC(=O)[C@H](O)C(C)(C)COP(=O)(O)OP(=O)(O)OC[C@H]1O[C@@H](n2cnc3c(N)ncnc32)[C@H](O)[C@@H]1OP(=O)(O)O [Stearoyl-CoA] | 29 | 18.7 ± 1.8 | undergo reaction to release coenzyme A |  |
| CCCCCCCC(=O)SCCNC(=O)CCNC(=O)[C@H](O)C(C)(C)COP(=O)(O)OP(=O)(O)OC[C@H]1O[C@@H](n2cnc3c(N)ncnc32)[C@H](O)[C@@H]1OP(=O)(O)O [Octanoyl-CoA] | 12 | 8.0 ± 2.2 | undergo reaction to release coenzyme A |  |
| NC(=O)CC[C@H](N)C(=O)O [glutamine] |  |  |  | effect on growth of Synechococcus (Synechococcus [4]): slightly better growth |
| CCCCCC/C=C\CCCCCCCC(=O)SCCNC(=O)CCNC(=O)[C@H](O)C(C)(C)COP(=O)(O)OP(=O)(O)OC[C@H]1O[C@@H](n2cnc3c(N)ncnc32)[C@H](O)[C@@H]1OP(=O)(O)O [Palmitoleoyl-CoA] | 57 | 36.9 ± 0.9 | undergo reaction to release coenzyme A | Products, ketones (Cx) and fatty acids (FAx), in order of decreasing abundance (OleA [2]; second fatty acyl-CoA chain C16:1): FA16:1 > C31:2 |
| CC(O)C(=O)O (centres unmarked) [Lactic acid] |  |  |  | level at which growth was not inhibited (Synechococcus [5]): ≤ 1 g/L; level at which growth was stimulated (Synechococcus [5]): up to 0.5 g/L |
| N[C@@H](CCC(=O)O)C(=O)O [glutamate] |  |  |  | effect on growth of Synechococcus (Synechococcus [4]): slightly better growth |
| CCCCCCCCCCCC(=O)SCCNC(=O)CCNC(=O)[C@H](O)C(C)(C)COP(=O)(O)OP(=O)(O)OC[C@H]1O[C@@H](n2cnc3c(N)ncnc32)[C@H](O)[C@@H]1OP(=O)(O)O [Lauroyl-CoA] | 79 | 51.4 ± 1.9 | undergo reaction to release coenzyme A |  |
| CCCCCCCCCCCCCC(=O)CCCCCCCCCCCCC [14-heptacosanone] |  |  |  | products observed by GC-MS (OleC and OleD): 14-heptacosene was not detected |
| CCCCCCCCCC(=O)SCCNC(=O)CCNC(=O)[C@H](O)C(C)(C)COP(=O)(O)OP(=O)(O)OC[C@H]1O[C@@H](n2cnc3c(N)ncnc32)[C@H](O)[C@@H]1OP(=O)(O)O [Decanoyl-CoA] | 42 | 27.2 ± 1.6 | undergo reaction to release coenzyme A | Products, ketones (Cx) and fatty acids (FAx), in order of decreasing abundance (OleA [2]; second fatty acyl-CoA chain C10): FA10 > C19 |
| CC(=O)SCCNC(=O)CCNC(=O)[C@H](O)C(C)(C)COP(=O)(O)OP(=O)(O)OC[C@H]1O[C@@H](n2cnc3c(N)ncnc32)[C@H](O)[C@@H]1OP(=O)(O)O [Acetyl-CoA] |  |  | did not |  |
